A word on the EC50: it is the concentration that produces a half-maximal response.

This experiment in a line: Induction of autophagy in human H4-LC3 cells assessed as number of spots of LC3-GFP after 4 hrs by DAPI staining. It counts as functional, cell-based.
With `O=c1oc2ccccc2n1C1CCN(CCCC(c2ccc(F)cc2)c2ccc(F)cc2)CC1`, the EC50 was 8.2 µM.

For the molecule `O=c1sc2ccccc2n1C1CCN(CCCC(c2ccc(F)cc2)c2ccc(F)cc2)CC1`, the concentration for a half-maximal effect (EC50) is more than 50 µM.

`Fc1ccc(C(CCCN2CCC(n3cnc4ccccc43)CC2)c2ccc(F)cc2)cc1`: the half-maximal effective concentration (EC50) is 4.2 µM.

As to `O=[N+]([O-])c1ccc2c(cnn2C2CCN(CCCC(c3ccc(F)cc3)c3ccc(F)cc3)CC2)c1`, the EC50 came to 4.5 µM. Regarding `Fc1ccc(C(CCCN2CCC(n3nnc4ccccc43)CC2)c2ccc(F)cc2)cc1`, the 50% effective concentration (EC50) was more than 50 µM. As for `Fc1ccc(C(CCCN2CCC(N3CCc4ccccc43)CC2)c2ccc(F)cc2)cc1`, the figure is 3.8 µM; as for `Fc1ccc(C(CCCN2CCC(c3c[nH]c4ccccc34)CC2)c2ccc(F)cc2)cc1`, 6.4 µM; as for `Fc1ccc(C(CCCN2CCC(N3Cc4ccccc4C3)CC2)c2ccc(F)cc2)cc1`, 4.1 µM. `O=C1c2ccccc2C(=O)N1C1CCN(CCCC(c2ccc(F)cc2)c2ccc(F)cc2)CC1`: the EC50 is more than 50 µM. As for `Fc1ccc(C(CCCN2CCC(n3nc4ccccc4n3)CC2)c2ccc(F)cc2)cc1`, the EC50 was more than 50 µM.

Take `Fc1ccc(C(CCCN2CCC(c3nc4ccccc4[nH]3)CC2)c2ccc(F)cc2)cc1`: the EC50 amounted to 4 µM.

On to `Fc1ccc(C(CCCN2CCC(c3nc4ccccc4o3)CC2)c2ccc(F)cc2)cc1`, for which the EC50 is 11.2 µM. The same measure for `Fc1ccc(C(CCCN2CCC(c3nc4ccccc4s3)CC2)c2ccc(F)cc2)cc1`: 10.6 µM. Consider `O=C1NCc2ccccc2N1C1CCN(CCCC(c2ccc(F)cc2)c2ccc(F)cc2)CC1`, for which the EC50 is 2.9 µM. For `O=S1(=O)NCc2ccccc2N1C1CCN(CCCC(c2ccc(F)cc2)c2ccc(F)cc2)CC1`, the EC50 was determined as 10.2 µM. The same measure for `Fc1ccc(C(CCCN2CCC(N3CCc4ccccc4C3)CC2)c2ccc(F)cc2)cc1`: 6 µM; for `O=C1Oc2ccccc2CN1C1CCN(CCCC(c2ccc(F)cc2)c2ccc(F)cc2)CC1`: 4.1 µM; for `O=C1Nc2ccccc2CN1C1CCN(CCCC(c2ccc(F)cc2)c2ccc(F)cc2)CC1`: 1.3 µM. The same measure for `O=S1(=O)Nc2ccccc2CN1C1CCN(CCCC(c2ccc(F)cc2)c2ccc(F)cc2)CC1`: 21.7 µM. For the molecule `O=c1c2ccccc2nnn1C1CCN(CCCC(c2ccc(F)cc2)c2ccc(F)cc2)CC1`, the half-maximal effective concentration (EC50) stood at 7.8 µM. The same measure for `O=c1[nH]c2ccccc2c(=O)n1C1CCN(CCCC(c2ccc(F)cc2)c2ccc(F)cc2)CC1`: 2.8 µM; for `FC(F)(F)c1ccc(C(CCCN2CCC(N3CCc4ccccc43)CC2)c2ccc(C(F)(F)F)cc2)cc1`: 1.2 µM. The same measure for `FC(F)(F)c1ccc(C(CCCN2CCC(c3c[nH]c4ccccc34)CC2)c2ccc(C(F)(F)F)cc2)cc1`: 0.45 µM; for `FC(F)(F)c1ccc(C(CCCN2CCC(N3Cc4ccccc4C3)CC2)c2ccc(C(F)(F)F)cc2)cc1`: 1.5 µM. The same measure for `FC(F)(F)c1ccc(C(CCCN2CCC(c3nc4ccccc4[nH]3)CC2)c2ccc(C(F)(F)F)cc2)cc1`: 0.9 µM; for `N#CC(CCCN1CCC(N2CCc3ccccc32)CC1)(c1ccccc1)c1ccccc1`: 4.5 µM.

As to `N#CC(CCCN1CCC(c2c[nH]c3ccccc23)CC1)(c1ccccc1)c1ccccc1`, the EC50 turned out to be 2.6 µM. The same measure for `N#CC(CCCN1CCC(N2Cc3ccccc3C2)CC1)(c1ccccc1)c1ccccc1`: 7.1 µM; for `N#CC(CCCN1CCC(c2nc3ccccc3[nH]2)CC1)(c1ccccc1)c1ccccc1`: 8.5 µM. As for `Fc1ccc(C(CCCN2CCN(c3nsc4ccccc34)CC2)c2ccc(F)cc2)cc1`, the figure is 10.1 µM. The same measure for `O=C1NC2(CCN(CCCC(c3ccc(F)cc3)c3ccc(F)cc3)CC2)Nc2ccccc21`: 1.9 µM. As for `Fc1ccc(C(CCCN2CCC(c3noc4cc(F)ccc34)CC2)c2ccc(F)cc2)cc1`, the concentration for a half-maximal effect (EC50) is more than 50 µM. Take `O=c1[nH]c2ccccc2n1C1CCN(CCCC(c2ccc(F)cc2)c2ccc(F)cc2)CC1` [PIMOZIDE]: the EC50 stood at 5.4 µM.

The values above are taken from ChEMBL document CHEMBL3217438, “Diphenylbutylpiperidine-based cell autophagy inducers: Design, synthesis and SAR studies” (Medchemcomm, 2011).
